# Test results published in article PMC4627656, “Combining Metabolite-Based Pharmacophores with Bayesian Machine Learning Models for Mycobacterium tuberculosis Drug Discovery” (PLoS ONE, 2015).
# Columns and labels:
# Assay type in all cases: cell-based
# [1] = tested on: H37Rv (laboratory strain); assay: AlamarBlue MIC (absorbance), strain panel: H37Rv; conditions: Mycobacterium tuberculosis, drug resistance: None
# [2] = tested on: clinical strain 210; assay: AlamarBlue MIC (absorbance), strain panel: 210; conditions: Mycobacterium tuberculosis, drug resistance: None
# [3] = tested on: clinical MDR-TB strain 91; assay: AlamarBlue MIC (absorbance), strain panel: 91; conditions: Mycobacterium tuberculosis, read-out: MIC, strain 91
# [4] = tested on: clinical MDR-TB strain 36; assay: AlamarBlue MIC (absorbance), strain panel: 36; conditions: Mycobacterium tuberculosis, read-out: MIC, strain 36
# [5] = tested on: clinical MDR-TB strain 116; assay: AlamarBlue MIC (absorbance), strain panel: 116; conditions: Mycobacterium tuberculosis, read-out: MIC, strain 116
# [6] = tested on: clinical MDR-TB strain 31; assay: AlamarBlue MIC (absorbance), strain panel: 31; conditions: Mycobacterium tuberculosis, read-out: MIC, strain 31
smiles,measurement,setting,value
CCCCC(=O)c1c(C)[n+]([O-])c2ccc([N+](=O)[O-])cc2[n+]1[O-] [SRI50],MIC,[1],0.16 µg/mL
same,MIC,[2],0.31 µg/mL
same,MIC,[3],0.16 µg/mL
same,MIC,[4],0.16 µg/mL
same,MIC,[5],0.16 µg/mL
same,MIC,[6],0.31 µg/mL
